Test results as given in ChEMBL document CHEMBL1201862, “PubChem BioAssay data set” (2004).
Where a name gives a salt, the structure may show the parent alone. The source made the active and inactive calls.

Columns and labels:
Vero [1] = assay: cells; type: functional, cell-based; settings: Chlorocebus sabaeus
Vero [2] = assay: cells; type: functional; settings: Chlorocebus sabaeus
[3] = blockers of bursicon-stimulated LGR2 cAMP reporter – cell-based, HEK293, CRE-luciferase reporter, cherry pick, set 2, dose response (AID 743343); type: functional;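 further: transfected cells were stimulated with diluted bursicon conditioned medium after compound addition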
[4] = Trypanosoma cruzi growth suppression in host cells – NIH3T3 host cells, beta-gal luminescence, confirmation (AID 2044); type: functional, cell-based;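 further: intracellular parasites grown in NIH/3T3 mouse fibroblasts as host cells; luminescent beta-galactosidase reporter signal from transgenic T. cruzi replicating inside host cells; inhibitors lower the luminescence signal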
[5] = NIH3T3 cell viability loss – ATP luminescence, mouse fibroblasts, counter-screen, dose response (AID 2010); type: functional, cell-based;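 further: cells exposed to compound for about 90 hours before reading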
[6] = toxicity toward HepG2 liver cells – cell-based, plate reader, cherry-pick, antagonist series, cytotoxicity control, dose response (AID 743416); type: functional
[7] = molecular target: T1, Heat shock factor protein 1 (Mus musculus, UniProt P38532); assay: enhancement of HSF1-driven luciferase signal – cell-based, NIH3T3, luminescence, dose retest, confirmation (AID 435004); type: functional;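 further: stress induced by proteasome inhibitor MG132 added 30 min after compound; luciferase reporter driven by HSF1 response element in NIH3T3 cells; actives raise luminescence as potentiators of the MG132 stress response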
T1 sequence (P38532 whole entry): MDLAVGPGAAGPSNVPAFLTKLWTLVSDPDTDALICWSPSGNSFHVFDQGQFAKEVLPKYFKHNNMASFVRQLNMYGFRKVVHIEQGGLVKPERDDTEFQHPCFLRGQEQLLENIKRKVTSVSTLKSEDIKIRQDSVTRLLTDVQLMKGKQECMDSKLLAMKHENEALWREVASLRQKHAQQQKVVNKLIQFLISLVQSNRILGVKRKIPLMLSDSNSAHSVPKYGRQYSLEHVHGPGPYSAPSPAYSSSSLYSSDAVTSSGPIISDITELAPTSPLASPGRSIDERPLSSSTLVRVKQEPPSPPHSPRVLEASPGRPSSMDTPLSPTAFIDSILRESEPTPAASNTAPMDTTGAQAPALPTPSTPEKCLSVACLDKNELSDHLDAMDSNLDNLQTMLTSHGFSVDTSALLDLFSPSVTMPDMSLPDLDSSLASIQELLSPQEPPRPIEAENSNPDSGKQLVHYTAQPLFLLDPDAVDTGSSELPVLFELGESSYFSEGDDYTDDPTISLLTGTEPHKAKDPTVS

[8] = viability loss in HEK293 cells – cell-based, plate reader, cherry-picked samples, cytotoxicity control, dose response (AID 743446); type: functional
[9] = molecular target: Beta-2 adrenergic receptor (Homo sapiens, UniProt P07550); assay: ADRB2 activation measured by internalization – cell-based, FAP fluorogen, flow cytometry, cherry pick 1, dose response (AID 588763); type: functional
Sequence of Beta-2 adrenergic receptor (P07550 whole entry): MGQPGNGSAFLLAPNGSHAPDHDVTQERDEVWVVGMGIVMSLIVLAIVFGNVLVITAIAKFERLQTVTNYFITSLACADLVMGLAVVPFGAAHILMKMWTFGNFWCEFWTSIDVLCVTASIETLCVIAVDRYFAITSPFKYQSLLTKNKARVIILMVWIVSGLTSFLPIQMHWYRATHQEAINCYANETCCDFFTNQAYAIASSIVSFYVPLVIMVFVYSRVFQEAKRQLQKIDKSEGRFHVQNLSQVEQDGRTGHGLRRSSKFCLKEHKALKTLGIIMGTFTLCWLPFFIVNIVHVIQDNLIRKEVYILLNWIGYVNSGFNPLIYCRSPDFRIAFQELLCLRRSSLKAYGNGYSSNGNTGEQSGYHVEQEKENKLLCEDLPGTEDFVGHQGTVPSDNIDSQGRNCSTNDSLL

[10] = A549 cell cytotoxicity, dose response, cytotoxicity control, plate reader, cherry-pick, antagonist series (AID 743412); type: functional, cell-based
Protein RecA = molecular target: T2, Protein RecA (Mycobacterium tuberculosis, UniProt P9WHJ3); assay: Fluorescence Cell-Free Homogeneous Dose Retest to Identify Inhibitors of RecA-Intein Splicing Activity. [Related pubchem assays (depositor defined):AID2097, AID2223, AID489010, AID492950]; type: functional
T2 sequence (P9WHJ3 whole entry): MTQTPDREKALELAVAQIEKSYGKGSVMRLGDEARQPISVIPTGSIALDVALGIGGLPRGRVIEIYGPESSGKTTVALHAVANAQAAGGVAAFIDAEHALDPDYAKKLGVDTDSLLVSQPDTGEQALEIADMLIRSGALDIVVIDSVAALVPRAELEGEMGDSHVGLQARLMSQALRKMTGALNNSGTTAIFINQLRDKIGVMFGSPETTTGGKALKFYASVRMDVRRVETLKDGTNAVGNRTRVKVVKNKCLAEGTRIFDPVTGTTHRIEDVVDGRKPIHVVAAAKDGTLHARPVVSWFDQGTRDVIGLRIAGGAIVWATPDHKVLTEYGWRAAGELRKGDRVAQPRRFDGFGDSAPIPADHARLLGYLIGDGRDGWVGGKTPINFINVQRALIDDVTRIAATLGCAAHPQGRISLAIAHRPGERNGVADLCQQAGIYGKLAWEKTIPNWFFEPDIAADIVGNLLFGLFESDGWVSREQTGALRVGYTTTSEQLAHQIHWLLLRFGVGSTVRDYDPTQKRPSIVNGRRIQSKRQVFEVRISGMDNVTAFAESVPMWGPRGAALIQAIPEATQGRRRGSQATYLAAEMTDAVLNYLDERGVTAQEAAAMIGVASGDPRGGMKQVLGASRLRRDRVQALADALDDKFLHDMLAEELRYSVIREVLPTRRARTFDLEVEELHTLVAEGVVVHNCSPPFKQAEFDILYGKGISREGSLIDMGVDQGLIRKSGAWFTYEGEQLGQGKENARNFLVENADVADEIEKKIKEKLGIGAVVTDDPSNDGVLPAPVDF

HEK293 [11] = assay: cells; settings: Homo sapiens
[12] = molecular target: T3, Replicative DNA helicase DnaB (Mycobacterium tuberculosis, UniProt P9WMR3); assay: DnaB intein splicing inhibitors, dose response, biochemical, cell-free fluorescence (AID 449749); type: functional
T3 sequence (P9WMR3 whole entry): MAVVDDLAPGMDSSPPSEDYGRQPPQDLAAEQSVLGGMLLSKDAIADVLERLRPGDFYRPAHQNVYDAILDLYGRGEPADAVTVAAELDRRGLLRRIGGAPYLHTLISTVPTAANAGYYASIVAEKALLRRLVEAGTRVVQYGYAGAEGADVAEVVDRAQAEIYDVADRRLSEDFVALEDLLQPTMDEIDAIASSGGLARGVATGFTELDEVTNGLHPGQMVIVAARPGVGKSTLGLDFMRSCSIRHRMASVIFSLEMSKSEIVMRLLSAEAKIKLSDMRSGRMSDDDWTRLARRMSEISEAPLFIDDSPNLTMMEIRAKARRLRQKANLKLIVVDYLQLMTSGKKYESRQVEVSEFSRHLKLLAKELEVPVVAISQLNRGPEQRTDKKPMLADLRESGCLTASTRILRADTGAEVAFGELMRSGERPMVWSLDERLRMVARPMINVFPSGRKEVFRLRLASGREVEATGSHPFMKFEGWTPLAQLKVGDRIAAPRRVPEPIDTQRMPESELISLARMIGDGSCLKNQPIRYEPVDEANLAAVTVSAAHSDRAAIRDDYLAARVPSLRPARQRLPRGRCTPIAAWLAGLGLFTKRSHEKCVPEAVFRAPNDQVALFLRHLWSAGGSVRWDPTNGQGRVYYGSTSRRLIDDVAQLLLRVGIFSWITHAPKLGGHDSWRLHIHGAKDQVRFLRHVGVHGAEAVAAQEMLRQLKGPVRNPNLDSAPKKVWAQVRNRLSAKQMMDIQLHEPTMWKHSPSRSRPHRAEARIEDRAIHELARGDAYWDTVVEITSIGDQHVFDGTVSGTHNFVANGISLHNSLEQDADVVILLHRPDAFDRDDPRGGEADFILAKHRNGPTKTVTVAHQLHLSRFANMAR

[13] = blockade of melanocortin 4 receptor signaling – cell-based, plate reader, cherry pick, counter-screen for LGR2 antagonist project, dose response (AID 743444); type: functional;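 further: transfected HEK 293 cells stimulated with alpha-MSH peptide; potency of inhibitors of the alpha-MSH evoked signal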
[14] = Fluorescence-based cell-based high throughput dose response assay for inhibitors of the interaction of nucleotide-binding oligomerization domain containing 2 (NOD2) and the receptor-interacting serine-threonine kinase 2 (RIPK2).; type: functional; settings: Homo sapiens
HEK293 [15] = assay: cells; settings: Homo sapiens; remark: listed apart in the source
Cysteine protease ATG4B = molecular target: T4, Cysteine protease ATG4B (Homo sapiens, UniProt Q9Y4P1); type: functional;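 further: Fluorescence-based dose-response confirmation assay measuring inhibition of ATG4B activity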
T4 sequence (Q9Y4P1 whole entry): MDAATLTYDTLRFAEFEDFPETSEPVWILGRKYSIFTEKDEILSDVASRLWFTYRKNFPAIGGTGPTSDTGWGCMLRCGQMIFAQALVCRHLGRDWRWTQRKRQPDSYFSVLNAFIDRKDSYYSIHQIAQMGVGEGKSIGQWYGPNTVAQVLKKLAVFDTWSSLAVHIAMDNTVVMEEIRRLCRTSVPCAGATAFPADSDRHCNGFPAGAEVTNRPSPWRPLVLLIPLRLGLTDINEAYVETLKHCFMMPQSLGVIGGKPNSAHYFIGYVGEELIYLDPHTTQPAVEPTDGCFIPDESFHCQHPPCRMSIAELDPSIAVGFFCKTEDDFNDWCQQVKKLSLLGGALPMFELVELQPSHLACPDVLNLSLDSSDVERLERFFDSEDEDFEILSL

Phospholipase A2 = Phospholipase A2 (Homo sapiens, UniProt P04054); type: functional;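 further: confirmatory dose-response counterscreen on phospholipase A2, testing hits that came from an ultra-high-throughput screen for ATG4B inhibitors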
Sequence of Phospholipase A2 (P04054 whole entry): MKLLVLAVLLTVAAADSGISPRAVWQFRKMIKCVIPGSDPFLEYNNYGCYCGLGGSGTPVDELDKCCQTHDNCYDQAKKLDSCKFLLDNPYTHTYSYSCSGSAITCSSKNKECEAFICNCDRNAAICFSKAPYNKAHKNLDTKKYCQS

[16] = molecular target: Glucose-6-phosphate 1-dehydrogenase (Homo sapiens, UniProt P11413); assay: inhibition of Homo sapiens G6PD, dose series – biochemical, fluorescence, selectivity assay for P. falciparum G6PD inhibitor project, dose response (AID 504792); type: functional
Sequence of Glucose-6-phosphate 1-dehydrogenase (P11413 whole entry): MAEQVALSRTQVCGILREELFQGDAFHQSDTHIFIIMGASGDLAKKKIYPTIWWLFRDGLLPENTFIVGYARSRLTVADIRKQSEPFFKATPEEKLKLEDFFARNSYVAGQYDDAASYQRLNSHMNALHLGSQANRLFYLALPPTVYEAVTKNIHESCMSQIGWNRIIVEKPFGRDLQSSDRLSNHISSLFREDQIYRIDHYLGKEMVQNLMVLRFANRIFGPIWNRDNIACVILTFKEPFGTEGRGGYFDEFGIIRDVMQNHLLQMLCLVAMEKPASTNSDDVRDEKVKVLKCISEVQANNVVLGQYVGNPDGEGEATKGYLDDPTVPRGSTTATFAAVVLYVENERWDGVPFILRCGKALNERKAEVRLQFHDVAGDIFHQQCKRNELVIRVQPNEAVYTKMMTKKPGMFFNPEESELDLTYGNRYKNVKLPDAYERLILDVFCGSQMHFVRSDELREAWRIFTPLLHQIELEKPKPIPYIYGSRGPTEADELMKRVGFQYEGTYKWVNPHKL

[17] = molecular target: DNA (cytosine-5)-methyltransferase 1 (Homo sapiens, UniProt P26358); assay: inhibition of DNA methylation by DNMT1 – biochemical, fluorescent molecular beacon, confirmation (AID 602386); type: functional
Sequence of DNA (cytosine-5)-methyltransferase 1 (P26358 whole entry): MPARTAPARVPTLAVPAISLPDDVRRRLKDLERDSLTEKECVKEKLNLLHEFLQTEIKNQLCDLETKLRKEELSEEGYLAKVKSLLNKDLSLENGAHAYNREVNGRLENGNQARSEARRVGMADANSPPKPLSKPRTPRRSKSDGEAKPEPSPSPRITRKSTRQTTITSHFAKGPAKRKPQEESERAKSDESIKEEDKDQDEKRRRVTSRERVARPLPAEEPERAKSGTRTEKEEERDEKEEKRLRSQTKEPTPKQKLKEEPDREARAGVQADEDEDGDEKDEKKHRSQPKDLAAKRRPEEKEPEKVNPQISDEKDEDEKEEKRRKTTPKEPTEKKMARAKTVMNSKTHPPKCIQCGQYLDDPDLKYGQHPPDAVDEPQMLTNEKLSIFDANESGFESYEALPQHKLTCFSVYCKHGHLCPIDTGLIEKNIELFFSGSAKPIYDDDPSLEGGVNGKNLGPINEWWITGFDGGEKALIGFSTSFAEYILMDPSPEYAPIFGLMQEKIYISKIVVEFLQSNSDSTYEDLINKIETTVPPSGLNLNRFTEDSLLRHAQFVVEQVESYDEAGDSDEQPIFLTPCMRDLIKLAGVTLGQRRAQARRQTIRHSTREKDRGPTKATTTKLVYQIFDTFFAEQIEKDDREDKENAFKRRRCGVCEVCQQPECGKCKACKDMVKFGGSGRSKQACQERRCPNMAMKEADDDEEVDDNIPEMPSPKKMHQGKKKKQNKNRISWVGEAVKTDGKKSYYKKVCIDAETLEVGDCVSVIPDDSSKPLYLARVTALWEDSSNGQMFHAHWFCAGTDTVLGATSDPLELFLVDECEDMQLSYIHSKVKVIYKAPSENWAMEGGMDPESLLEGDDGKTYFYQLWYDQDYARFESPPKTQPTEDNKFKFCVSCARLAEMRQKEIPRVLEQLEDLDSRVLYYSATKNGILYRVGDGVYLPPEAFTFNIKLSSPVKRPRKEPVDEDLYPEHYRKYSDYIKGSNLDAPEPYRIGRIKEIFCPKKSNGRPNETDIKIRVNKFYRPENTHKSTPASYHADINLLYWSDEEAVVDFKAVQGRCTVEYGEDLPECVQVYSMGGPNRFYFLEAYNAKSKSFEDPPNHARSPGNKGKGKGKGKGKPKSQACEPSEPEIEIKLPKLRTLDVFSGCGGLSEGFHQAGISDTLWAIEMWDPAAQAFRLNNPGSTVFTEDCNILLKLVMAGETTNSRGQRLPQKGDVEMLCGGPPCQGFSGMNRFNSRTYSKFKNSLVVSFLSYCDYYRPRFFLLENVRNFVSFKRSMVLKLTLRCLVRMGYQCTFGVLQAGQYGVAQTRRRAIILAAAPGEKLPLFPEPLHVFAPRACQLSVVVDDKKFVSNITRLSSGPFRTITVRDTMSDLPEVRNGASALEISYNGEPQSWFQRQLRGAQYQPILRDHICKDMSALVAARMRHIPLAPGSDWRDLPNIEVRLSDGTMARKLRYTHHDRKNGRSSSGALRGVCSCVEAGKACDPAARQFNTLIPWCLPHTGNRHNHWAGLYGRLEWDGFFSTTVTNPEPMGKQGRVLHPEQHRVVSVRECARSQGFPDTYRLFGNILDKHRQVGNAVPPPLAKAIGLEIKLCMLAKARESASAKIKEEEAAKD

Cytochrome P450 2D6 = Cytochrome P450 2D6 (Homo sapiens, UniProt P10635);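 further: CYP2D6 member of a cytochrome P450 panel assay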
Sequence of Cytochrome P450 2D6 (P10635 whole entry): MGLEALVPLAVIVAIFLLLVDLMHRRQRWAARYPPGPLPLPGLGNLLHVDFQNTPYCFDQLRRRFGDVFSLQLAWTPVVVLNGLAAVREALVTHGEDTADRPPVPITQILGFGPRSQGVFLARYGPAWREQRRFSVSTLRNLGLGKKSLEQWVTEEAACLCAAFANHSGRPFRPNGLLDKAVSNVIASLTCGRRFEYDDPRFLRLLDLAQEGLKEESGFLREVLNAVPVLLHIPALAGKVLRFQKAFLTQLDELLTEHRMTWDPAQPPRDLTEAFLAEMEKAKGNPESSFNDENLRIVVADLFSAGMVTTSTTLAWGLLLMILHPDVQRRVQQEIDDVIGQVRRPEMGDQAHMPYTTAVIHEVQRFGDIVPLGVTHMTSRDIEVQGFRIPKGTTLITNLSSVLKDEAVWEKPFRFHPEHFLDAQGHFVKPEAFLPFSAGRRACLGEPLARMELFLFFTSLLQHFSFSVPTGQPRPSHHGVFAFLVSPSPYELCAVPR

Cytochrome P450 3A4 = Cytochrome P450 3A4 (Homo sapiens, UniProt P08684);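 further: CYP3A4 tested as one member of a cytochrome P450 panel screen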
Sequence of Cytochrome P450 3A4 (P08684 whole entry): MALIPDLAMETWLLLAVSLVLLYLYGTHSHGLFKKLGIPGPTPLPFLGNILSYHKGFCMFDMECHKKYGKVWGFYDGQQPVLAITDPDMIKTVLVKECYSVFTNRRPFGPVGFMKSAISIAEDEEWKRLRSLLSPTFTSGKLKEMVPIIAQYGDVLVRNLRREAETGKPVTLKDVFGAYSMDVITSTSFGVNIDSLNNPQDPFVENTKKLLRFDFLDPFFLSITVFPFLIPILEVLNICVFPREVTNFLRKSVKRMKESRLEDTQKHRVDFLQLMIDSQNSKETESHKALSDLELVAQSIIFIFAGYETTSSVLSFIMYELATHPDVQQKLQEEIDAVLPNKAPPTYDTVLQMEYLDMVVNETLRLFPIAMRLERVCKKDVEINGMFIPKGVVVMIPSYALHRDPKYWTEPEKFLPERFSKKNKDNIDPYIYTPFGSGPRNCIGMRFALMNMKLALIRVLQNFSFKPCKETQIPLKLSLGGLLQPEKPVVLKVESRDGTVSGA

[18] = molecular target: T5, Mannose-6-phosphate isomerase (Homo sapiens, UniProt P34949); assay: MPI inhibition at elevated mannose 6-phosphate – biochemical, fluorescence intensity, high mannose 6-phosphate, primary screen (AID 1220)
T5 sequence (P34949 whole entry): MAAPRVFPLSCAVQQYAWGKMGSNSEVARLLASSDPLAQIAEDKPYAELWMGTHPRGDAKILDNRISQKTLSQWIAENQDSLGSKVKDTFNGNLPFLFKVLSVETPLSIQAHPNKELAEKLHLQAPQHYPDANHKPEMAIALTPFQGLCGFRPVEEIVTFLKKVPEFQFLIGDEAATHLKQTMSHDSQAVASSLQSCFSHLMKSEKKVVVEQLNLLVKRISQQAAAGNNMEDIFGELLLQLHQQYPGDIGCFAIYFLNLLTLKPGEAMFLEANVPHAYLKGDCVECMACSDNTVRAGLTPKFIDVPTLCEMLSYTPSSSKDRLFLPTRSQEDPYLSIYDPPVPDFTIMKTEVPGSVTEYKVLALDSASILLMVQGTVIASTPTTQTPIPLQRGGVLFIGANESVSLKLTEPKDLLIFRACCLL

HeLa = assay: ATP-based viability loss in HeLa cells – cell-based, CellTiter-Glo luminescence, cherry-pick samples, cytotoxicity control for MITF activator project, dose response (AID 540259); type: functional; settings: Homo sapiens
[19] = molecular target: T6, Probable nicotinate-nucleotide adenylyltransferase (Staphylococcus aureus (strain N315), UniProt P65502); type: functional, Staphylococcus aureus subsp. aureus N315;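 on IC50 Mean: confirmatory dose-response retesting of NadD inhibitor hits first found in an ultra-high-throughput screen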
T6 sequence (P65502 whole entry): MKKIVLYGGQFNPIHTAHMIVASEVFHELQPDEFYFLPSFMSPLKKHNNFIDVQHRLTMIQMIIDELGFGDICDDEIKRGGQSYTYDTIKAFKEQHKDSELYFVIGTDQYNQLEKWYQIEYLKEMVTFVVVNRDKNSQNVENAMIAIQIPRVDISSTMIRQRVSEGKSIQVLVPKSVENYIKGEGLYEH

[20] = molecular target: T6, Probable nicotinate-nucleotide adenylyltransferase; type: functional, Staphylococcus aureus subsp. aureus N315; settings: read-out: IC50_Mean
[21] = molecular target: Voltage-gated inwardly rectifying potassium channel KCNH2 (Homo sapiens, UniProt Q12809); settings: Potency;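 further: confirmatory quantitative high-throughput screen measuring inhibition of hERG channel activity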
Sequence of Voltage-gated inwardly rectifying potassium channel KCNH2 (Q12809 whole entry): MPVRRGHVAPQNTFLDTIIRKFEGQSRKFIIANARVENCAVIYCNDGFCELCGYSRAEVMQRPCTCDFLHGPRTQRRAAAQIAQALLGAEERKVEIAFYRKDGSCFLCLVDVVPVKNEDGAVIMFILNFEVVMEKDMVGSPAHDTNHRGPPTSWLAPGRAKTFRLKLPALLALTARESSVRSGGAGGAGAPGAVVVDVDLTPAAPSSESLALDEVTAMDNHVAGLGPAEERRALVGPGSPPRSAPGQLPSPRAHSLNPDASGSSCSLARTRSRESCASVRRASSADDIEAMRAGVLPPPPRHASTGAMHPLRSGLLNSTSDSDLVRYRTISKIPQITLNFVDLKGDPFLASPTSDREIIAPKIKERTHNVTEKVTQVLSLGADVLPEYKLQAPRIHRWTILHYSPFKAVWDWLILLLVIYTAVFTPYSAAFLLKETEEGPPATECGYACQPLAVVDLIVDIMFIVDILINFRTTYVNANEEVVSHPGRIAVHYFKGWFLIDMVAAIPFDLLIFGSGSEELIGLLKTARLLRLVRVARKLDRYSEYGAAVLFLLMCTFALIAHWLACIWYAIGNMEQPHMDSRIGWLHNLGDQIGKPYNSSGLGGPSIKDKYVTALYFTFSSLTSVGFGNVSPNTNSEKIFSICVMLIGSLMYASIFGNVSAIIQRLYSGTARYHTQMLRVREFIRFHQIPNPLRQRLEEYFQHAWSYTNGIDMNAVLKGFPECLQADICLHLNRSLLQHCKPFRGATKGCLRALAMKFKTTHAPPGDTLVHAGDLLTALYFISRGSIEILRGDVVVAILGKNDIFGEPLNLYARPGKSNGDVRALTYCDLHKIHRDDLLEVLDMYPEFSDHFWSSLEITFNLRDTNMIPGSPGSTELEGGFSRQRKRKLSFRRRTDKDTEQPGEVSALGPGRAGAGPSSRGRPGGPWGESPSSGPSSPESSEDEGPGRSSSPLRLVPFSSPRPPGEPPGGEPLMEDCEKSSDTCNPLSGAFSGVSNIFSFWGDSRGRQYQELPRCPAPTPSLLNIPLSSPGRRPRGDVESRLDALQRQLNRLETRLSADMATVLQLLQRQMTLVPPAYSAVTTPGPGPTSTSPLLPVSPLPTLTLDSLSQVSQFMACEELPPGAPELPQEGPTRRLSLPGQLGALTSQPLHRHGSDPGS

COc1ccc(C2c3c(ncn(CCCN4CCOCC4)c3=N)Oc3ccc4ccccc4c32)cc1OC (stereo not drawn)
IC50 (Vero [1]): 23.8 µM (active) | CC50 (Vero [2]): > 25 µM (active)

CS(=O)(=O)c1ccc(C(=O)OCc2nnc(-c3ccccc3)o2)cc1[N+](=O)[O-]
AC50 [3]: 13.4 µM (active) | EC50 [4]: 4.95 µM (active) | EC50 [5]: 6.24 µM (active) | AC50 [6]: 8.73 µM (active) | EC50 [7]: 8.57 µM (inconclusive) | AC50 [8]: 12.1 µM (active) | EC50 [9]: 19 µM (inactive) | AC50 [10]: 6.14 µM (active) | EC50 (Protein RecA): 2.66 µM (active) | EC50 (HEK293 [11]): > 59.6 µM (inactive) | AC50 [12]: 7.57 µM (active) | AC50 [13]: 20.2 µM (active) | IC50 [14]: 3.01 µM (active) | EC50 (HEK293 [15]): > 59.6 µM (inactive)

CCOC(=O)c1sc(-c2ccccc2)cc1NC(=O)Nc1ccccc1
EC50 [4]: 3.49 µM (active) | EC50 [5]: 16.8 µM (active) | IC50 (Cysteine protease ATG4B): 21.9 µM (inactive) | IC50 (Phospholipase A2): 9.28 µM (active)

CC(=O)OCC1(C)CN(c2ccccc2)NC1=O (stereo not drawn)
IC50 [16]: 46.7 µM (inactive)

CC(C)(C)CC(=O)Nc1cccc2c1CCCC2
IC50 [17]: > 99 µM (inactive)

CCCc1cc(=O)[nH]c(SCc2cc(Cl)ccc2OC(F)F)n1
IC50 (Cysteine protease ATG4B): 9.02 µM (active) | IC50 (Phospholipase A2): 9.01 µM (active) | AC50 (Cytochrome P450 2D6): 20 µM (inconclusive) | AC50 (Cytochrome P450 3A4): 1.12 µM (inconclusive)

COc1ccc(NS(=O)(=O)c2ccc(N3CCCC3)c(NC(=S)Nc3cccc(C)c3C)c2)cc1
IC50 [18]: > 50 µM (not active) | IC50 [16]: > 80 µM (inactive)

Cc1nc(N2CCN(S(=O)(=O)c3ccccc3)CC2)c2cc(-c3ccccc3)sc2n1
AC50 (HeLa): > 350 µM (inactive)

O=C1NC(=O)N(CCc2ccccc2)C(=O)/C1=C(O)/C=C/c1ccccc1
IC50 (Vero [1]): > 25 µM (active) | CC50 (Vero [2]): 13.3 µM (active)

OCC1(CCOc2ccccc2)CCN(Cc2nc3cc(F)ccc3[nH]2)CC1
IC50 (Vero [1]): 24.6 µM (active)

O=C(Nc1ccccc1O)c1cc2cc(Br)ccc2oc1=O
AC50 (HeLa): 221 µM (active)

O=C(O)c1cc2c(cc1NC(=O)c1ccccc1OC(F)F)OCCCO2
IC50 (Cysteine protease ATG4B): 9.56 µM (active) | IC50 (Phospholipase A2): 6.69 µM (active)

CC(=NNc1nc2ccccc2s1)c1ccncn1
IC50 (Vero [1]): > 25 µM (active) | CC50 (Vero [2]): 5.47 µM (active)

NC(CSC(c1ccccc1)(c1ccccc1)c1ccc(-c2ccccc2)cc1)C(=O)O (stereo not drawn)
IC50 [19]: 11.5 µM (active) | IC50 [20]: 24 µM (active) | IC50 [17]: 9.65 µM (active)

CCS(=O)(=O)Nc1cccc(C(=C2CCCCC2)c2c[nH]cn2)c1
AC50 [21]: 14.1 µM (inconclusive)

CCn1cnc2c(Nc3cccc(Cl)c3)nc(C#N)nc21
AC50 (HeLa): 50 µM (active)

CCCN(CCC)CCc1ccc(O)c(O)c1 [DIPROPYLDOPAMINE HYDROBROMIDE]
AC50 [21]: 15.8 µM (inconclusive)
